Measurements as given in patent US20230138851A1, “NOVEL ALKYNE DERIVATIVES” (CARNA BIOSCIENCES, INC., priority 2020, published 2023).
pIC50: −log10 of the molar value.

How the values were obtained:
Type in all cases: biochemical
DYRK1A = target: T1, DYRK1A (Homo sapiens, UniProt Q13627); assay: Inhibition test on activity of DYRK family, mobility shift assay (MSA), DYRK1A; details: ATP 100 μM, FITC-labeled DYRKtide peptide substrate, room temperature 1 hour; for pIC50: read-out: Inhibitory Activity 1a (IC50 against DYRK1A)
T1 construct: purchased Carna Biosciences, Inc. 04-130
Method in brief: (§1)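 FITC-DYRKtide phosphorylation in 20 mM HEPES pH 7.5 with MgCl2; ATP in the substrate mix was 100 μM (DYRK1A), 200 μM (DYRK1B), 40 μM (DYRK2) or 20 μM (DYRK3). Reactions ran 1 h at room temperature; inhibition from P/(P+S) versus blank and DMSO control, IC50 by regression on log concentration.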

DYRK2 = target: T2, DYRK2 (Homo sapiens, UniProt Q92630); assay: Inhibition test on activity of DYRK family, mobility shift assay (MSA), DYRK2; details: ATP 40 μM, FITC-labeled DYRKtide peptide substrate, room temperature 1 hour; for pIC50: read-out: Inhibitory Activity 2 (IC50 against DYRK2)
T2 construct: purchased Carna Biosciences, Inc. 04-132
T2 sequence (Q92630 1-601): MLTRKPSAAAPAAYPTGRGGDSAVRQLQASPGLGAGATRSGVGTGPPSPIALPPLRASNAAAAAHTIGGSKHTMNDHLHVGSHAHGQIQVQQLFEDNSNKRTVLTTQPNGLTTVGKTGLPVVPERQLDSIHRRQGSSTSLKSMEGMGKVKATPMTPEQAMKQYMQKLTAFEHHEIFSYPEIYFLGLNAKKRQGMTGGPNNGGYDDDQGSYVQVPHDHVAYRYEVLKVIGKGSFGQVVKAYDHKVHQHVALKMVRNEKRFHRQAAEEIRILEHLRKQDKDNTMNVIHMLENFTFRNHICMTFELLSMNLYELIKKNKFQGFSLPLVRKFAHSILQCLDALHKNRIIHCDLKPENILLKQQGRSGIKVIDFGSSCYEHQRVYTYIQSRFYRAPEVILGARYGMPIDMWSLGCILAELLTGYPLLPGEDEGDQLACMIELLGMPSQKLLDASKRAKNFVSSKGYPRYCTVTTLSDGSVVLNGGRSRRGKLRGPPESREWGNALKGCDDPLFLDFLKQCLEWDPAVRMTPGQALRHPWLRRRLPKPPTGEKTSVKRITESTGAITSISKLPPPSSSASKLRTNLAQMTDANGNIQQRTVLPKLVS
Method in brief: as §1

DYRK3 = target: T3, DYRK3 (Homo sapiens, UniProt O43781); assay: Inhibition test on activity of DYRK family, mobility shift assay (MSA), DYRK3; details: ATP 20 μM, FITC-labeled DYRKtide peptide substrate, room temperature 1 hour; for pIC50: read-out: Inhibitory Activity 3 (IC50 against DYRK3)
T3 construct: purchased Carna Biosciences, Inc. 04-133
T3 sequence (O43781 1-588): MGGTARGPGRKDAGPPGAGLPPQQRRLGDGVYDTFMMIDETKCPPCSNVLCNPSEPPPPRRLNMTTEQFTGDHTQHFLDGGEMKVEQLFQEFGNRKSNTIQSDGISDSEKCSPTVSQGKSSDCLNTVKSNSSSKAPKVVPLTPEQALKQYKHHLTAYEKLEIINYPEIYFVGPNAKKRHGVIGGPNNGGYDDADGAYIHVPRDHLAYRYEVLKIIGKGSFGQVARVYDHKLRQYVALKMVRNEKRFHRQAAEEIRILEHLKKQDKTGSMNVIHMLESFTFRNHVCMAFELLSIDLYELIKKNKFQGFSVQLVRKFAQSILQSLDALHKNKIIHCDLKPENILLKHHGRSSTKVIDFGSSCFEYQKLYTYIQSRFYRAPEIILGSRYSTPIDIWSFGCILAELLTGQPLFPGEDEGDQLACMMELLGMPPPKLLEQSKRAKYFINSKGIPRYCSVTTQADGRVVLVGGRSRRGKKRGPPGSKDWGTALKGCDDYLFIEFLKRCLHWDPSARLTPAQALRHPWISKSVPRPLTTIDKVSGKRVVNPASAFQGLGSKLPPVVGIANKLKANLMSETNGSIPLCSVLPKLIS
Method in brief: as §1

Row | SMILES | Inhibitory Activity 1a (IC50 against DYRK1A) (DYRK1A) | pIC50 (DYRK2) | pIC50 (DYRK3) | pIC50 (DYRK1A) | Inhibitory Activity 3 (IC50 against DYRK3) (DYRK3) | Inhibitory Activity 2 (IC50 against DYRK2) (DYRK2)
1 | CC#CC1CNC(=O)N1c1nc2c(ccc3nn(C)cc32)s1 (racemic) [Example 51, (RS)-1-(7-methyl-7H-thiazolo[4,5-e]indazol-2-yl)-5-(prop-1-yn-1-yl)imidazolidin-2-one] | * * * | 6.00 to 7.00 | 6.00 to 7.00 |  |  | 
2 | CC#CC1CNC(=O)N1c1nc2c3c(ccc2s1)OCCO3 (single isomer, unassigned) [Example 59, 1-(7,8-dihydro-[1,4]dioxino[2′,3′:5,6]benz[1,2-d]thiazol-2-yl)-5-(prop-1-yn-1-yl)imidazolidin-2-one] |  | ≤ 6.00 | ≤ 6.00 | ≤ 6.00 |  | 
3 | CC#C[C@H]1[C@H](CC)NC(=O)N1c1nc2c3c(ccc2s1)OCC3 (single isomer, unassigned) [Example 72, trans-1-(7,8-dihydrobenzofuro[4,5-d]thiazol-2-yl)-4-ethyl-5-(prop-1-yn-1-yl)imidazolidin-2-one] |  | ≤ 6.00 | ≤ 6.00 | 6.00 to 7.00 |  | 
4 | CC#CC1C(CN)NC(=O)N1c1nc2c3c(ccc2s1)OCC3 (stereo not drawn) [Example 63, 4-(aminomethyl)-1-(7,8-dihydrobenzofuro[4,5-d]thiazol-2-yl)-5-(prop-1-yn-1-yl)imidazolidin-2-one] | * * * | 6.00 to 7.00 |  |  | * * | 
5 | CC#C[C@@H]1[C@H](CC)NC(=O)N1c1nc2c3c(ccc2s1)OCC3 (relative stereo) [Example 73, cis-1-(7,8-dihydrobenzofuro[4,5-d]thiazol-2-yl)-4-ethyl-5-(prop-1-yn-1-yl)imidazolidin-2-one] | * * * | 6.00 to 7.00 | 6.00 to 7.00 |  |  | 
6 | CC#C[C@@H]1[C@H]([C@H](C)O)NC(=O)N1c1nc2c3c(ccc2s1)OCC3 [Example 84, (4R,5R)-1-(7,8-dihydrobenzofuro[4,5-d]thiazol-2-yl)-4-((S)-1-hydroxyethyl)-5-(prop-1-yn-1-yl)imidazolidin-2-one] | * * * | 6.00 to 7.00 | 6.00 to 7.00 |  |  | 
7 | CC#C[C@@H]1[C@@H](C)NC(=O)N1c1nc2c3c(ccc2s1)OCC3 [Example 16, (4R,5R)-1-(7,8-dihydrobenzofuro[4,5-d]thiazol-2-yl)-4-methyl-5-(prop-1-yn-1-yl)imidazolidin-2-one] | * * * | ≤ 6.00 | 6.00 to 7.00 |  |  | 
8 | CC#CC1CNC(=O)N1c1nc2c(ccc3nccn32)s1 (racemic) [Example 6, (RS)-1-(imidazo[1,2-a]thiazolo[5,4-e]pyridin-2-yl)-5-(prop-1-yn-1-yl)imidazolidin-2-one] | * * * | 6.00 to 7.00 | 6.00 to 7.00 |  |  | 
9 | CC#CC1CNC(=O)N1c1nc2c3c(ccc2s1)OCC(C)N3C (racemic) [Example 40, (RS)-1-((RS)-8,9-dimethyl-8,9-dihydro-7H-thiazolo[4′,5′:3,4]benz[1,2-b][1,4]oxazin-2-yl)-5-(prop-1-yn-1-yl)imidazolidin-2-one] | * * * | 6.00 to 7.00 | 6.00 to 7.00 |  |  | 
10 | CC#CC1CNC(=O)N1c1nc2c3c(ccc2s1)OCCN3CCO (racemic) [Example 41, (RS)-1-[9-(2-hydroxyethyl)-8,9-dihydro-7H-thiazolo[4′,5′:3,4]benz[1,2-b][1,4]oxazin-2-yl]-5-(prop-1-yn-1-yl)imidazolidin-2-one] | * * * | 6.00 to 7.00 | 6.00 to 7.00 |  |  | 
11 | CC#C[C@H]1[C@H](CF)NC(=O)N1c1nc2c3c(ccc2s1)OCC3 (single isomer, unassigned) [Example 79, trans-1-(7,8-dihydrobenzofuro[4,5-d]thiazol-2-yl)-4-(fluoromethyl)-5-(prop-1-yn-1-yl)imidazolidin-2-one] |  | ≤ 6.00 | ≤ 6.00 | 6.00 to 7.00 |  | 
12 | CC#CC1CNC(=O)N1c1nc2c3c(ccc2s1)OCCO3 (single isomer, unassigned) [Example 58, 1-(7,8-dihydro-[1,4]dioxino[2′,3′:5,6]benz[1,2-d]thiazol-2-yl)-5-(prop-1-yn-1-yl)imidazolidin-2-one] | * * * | 6.00 to 7.00 |  |  | * * | 
13 | CC#C[C@H]1[C@@H](C)NC(=O)N1c1nc2c3c(ccc2s1)OCC3 [Example 17, (4R,5S)-1-(7,8-dihydrobenzofuro[4,5-d]thiazol-2-yl)-4-methyl-5-(prop-1-yn-1-yl)imidazolidin-2-one] |  | ≤ 6.00 | ≤ 6.00 | 6.00 to 7.00 |  | 
14 | CC#CC1CNC(=O)N1c1nc2c(ccc3ncccc32)s1 (single isomer, unassigned) [Example 34, 5-(prop-1-yn-1-yl)-1-(thiazolo[4,5-f]quinolin-2-yl)imidazolidin-2-one] | * * * |  |  |  | * * | * *
15 | CC#C[C@H]1[C@H]([C@H](C)O)NC(=O)N1c1nc2c3c(ccc2s1)OCC3 [Example 83, (4R,5S)-1-(7,8-dihydrobenzofuro[4,5-d]thiazol-2-yl)-4-((S)-1-hydroxyethyl)-5-(prop-1-yn-1-yl)imidazolidin-2-one] |  | ≤ 6.00 | ≤ 6.00 | 7.00 to 8.00 |  | 
16 | CC#C[C@H]1[C@H](CO)NC(=O)N1c1nc2c3c(ccc2s1)OCC3 (relative stereo) [Example 61, trans-1-(7,8-dihydrobenzofuro[4,5-d]thiazol-2-yl)-4-(hydroxymethyl)-5-(prop-1-yn-1-yl)imidazolidin-2-one] | * * * | 6.00 to 7.00 | 6.00 to 7.00 |  |  | 
17 | CC#C[C@@H]1[C@H](C(C)C)NC(=O)N1c1nc2c3c(ccc2s1)OCC3 [Example 68, (4S,5R)-1-(7,8-dihydrobenzofuro[4,5-d]thiazol-2-yl)-4-isopropyl-5-(prop-1-yn-1-yl)imidazolidin-2-one] | * * * | ≤ 6.00 | 6.00 to 7.00 |  |  | 
18 | CC(C)(O)C#CC1CNC(=O)N1c1nc2c3c(ccc2s1)OCC3 (racemic) [Example 22, (RS)-1-(7,8-dihydrobenzofuro[4,5-d]thiazol-2-yl)-5-(3-hydroxy-3-methylbut-1-yn-1-yl)imidazolidin-2-one] | * * | ≤ 6.00 | ≤ 6.00 |  |  | 
19 | CC#CC1CNC(=O)N1c1nc2c3c(ccc2s1)OCCN3C1CC1 (racemic) [Example 45, (RS)-1-(9-cyclopropyl-8,9-dihydro-7H-thiazolo[4′,5′:3,4]benz[1,2-b][1,4]oxazin-2-yl)-5-(prop-1-yn-1-yl)imidazolidin-2-one] | * * | 6.00 to 7.00 | 6.00 to 7.00 |  |  | 
20 | CC#C[C@H]1[C@H](COC)NC(=O)N1c1nc2c3c(ccc2s1)OCC3 (single isomer, unassigned) [Example 77, trans-1-(7,8-dihydrobenzofuro[4,5-d]thiazol-2-yl)-4-(methoxymethyl)-5-(prop-1-yn-1-yl)imidazolidin-2-one] | * * | ≤ 6.00 | ≤ 6.00 |  |  | 
21 | C#CC1CNC(=O)N1c1nc2c3c(ccc2s1)OCC3 (racemic) [Example 12, (RS)-1-(7,8-dihydrobenzofuro[4,5-d]thiazol-2-yl)-5-ethynylimidazolidin-2-on] | * * * |  |  |  | * * | * *
